This note sets out measurements from patent publication US11697646B2, “Triazole N-linked carbamoyl cyclohexyl acids as LPA antagonists” (BRISTOL-MYERS SQUIBB COMPANY, priority 2017, dated 2023).

T1 sequence (Q92633 whole entry): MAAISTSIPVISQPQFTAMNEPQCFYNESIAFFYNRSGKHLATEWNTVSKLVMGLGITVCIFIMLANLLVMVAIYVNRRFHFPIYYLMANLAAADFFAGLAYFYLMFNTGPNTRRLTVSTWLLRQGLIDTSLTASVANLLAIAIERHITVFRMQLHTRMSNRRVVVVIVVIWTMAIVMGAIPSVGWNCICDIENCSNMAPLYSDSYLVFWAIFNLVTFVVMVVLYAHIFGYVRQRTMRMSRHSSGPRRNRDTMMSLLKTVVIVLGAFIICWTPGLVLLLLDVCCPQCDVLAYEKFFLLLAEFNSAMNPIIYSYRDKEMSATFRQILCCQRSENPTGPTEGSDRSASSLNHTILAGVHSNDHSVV

One experiment addresses T1, human LPA1 (Homo sapiens, UniProt Q92633).
T1 construct: expressed in transfected cells; host or cells: Chinese hamster ovary (CHO) cells
Kind of experiment: LPA1 functional antagonist assay (calcium flux). The class given is cell-based. To be noted: CHO cells overexpressing human LPA1; calcium flux induced by 10 nM LPA; read-out: hLPA1 IC50. The procedure: The effectiveness of compounds of the present invention as LPA1 inhibitors can be determined in an LPA1 functional antagonist assay as follows:
The cells were then equilibrated to room temperature for 30 minutes before the assay. […] IC50 values were determined by fitting data to a 4-parameter logistic equation (GraphPad Prism, San Diego Calif.).
A general note: A change in cytosolic calcium serves as a functional read-out for many receptors and channels.
By IC50 is commonly meant the midpoint of a concentration-inhibition curve. As for `CCc1nc(-c2nnn(C)c2CNC(=O)NCc2ccccc2)ccc1O[C@H]1CCC[C@H](C(=O)O)C1` [Example 153, (1S,3S)-3-((6-(5-((3-benzyl-ureido)methyl)-1-methyl-1H-1,2,3-triazol-4-yl)-2-ethylpyridin-3-yl)oxy)cyclohexane-1-carboxylic acid], the IC50 came to 107 nM.

In the case of `CCCN(C)C(=O)NCc1c(-c2ccc(O[C@H]3CCC[C@H](C(=O)O)C3)c(C)n2)nnn1C` [Example 110, (1S,3S)-3-((2-methyl-6-(1-methyl-5-((3-methyl-3-propylureido)methyl)-1H-1,2,3-triazol-4-yl)pyridin-3-yl)oxy)cyclohexanecarboxylic acid], the IC50 amounted to 217 nM.

In the case of `Cc1nc(-c2nnn(C)c2NC(=O)OCCC(C)C)ccc1O[C@H]1CCC[C@H](C(=O)O)C1` [Example 77, (1S,3S)-3-((6-(5-(((isopentyloxy)carbonyl)amino)-1-methyl-1H-1,2,3-triazol-4-yl)-2-methylpyridin-3-yl)oxy)cyclohexane-1-carboxylic acid], the concentration for half-maximal inhibition (IC50) amounted to 20 nM.

Turning to `Cc1nc(-c2nnn(C)c2CCNC(=O)OCc2ccccc2Cl)ccc1O[C@H]1CCC[C@H](C(=O)O)C1` [Example 103, (1S,3S)-3-((6-(5-(2-((((2-chloro-benzyl)oxy)carbonyl)amino)ethyl)-1-methyl-1H-1,2,3-triazol-4-yl)-2-methylpyridin-3-yl)oxy)cyclohexane-1-carboxylic acid], the IC50 is 595 nM.

As to `Cc1nc(-c2nnn(C)c2NC(=O)OCC(C)C)c(F)cc1O[C@H]1CCC[C@H](C(=O)O)C1` [Example 219, (1S,3S)-3-((5-fluoro-6-(5-((isobutoxycarbonyl)amino)-1-methyl-1H-1,2,3-triazol-4-yl)-2-methylpyridin-3-yl)oxy)cyclohexane-1-carboxylic acid], the half-inhibitory concentration (IC50) was determined as 152 nM.

Turning to `Cc1nc(-c2nnn(C)c2CNC(=O)OCCCF)ccc1O[C@H]1CCC[C@H](C(=O)O)C1` [Example 55, (1S,3S)-3-((6-(5-((((3-fluoropropoxy)carbonyl)amino)methyl)-1-methyl-1H-1,2,3-triazol-4-yl)-2-methylpyridin-3-yl)oxy)cyclohexane-1-carboxylic acid], the IC50 is 411 nM.

On to `COCc1nc(-c2nnn(C)c2CNC(=O)OCc2ccccc2)ccc1O[C@H]1CCC[C@H](C(=O)O)C1` [Example 102, (1S,3S)-3-((6-(5-((((benzyloxy)carbonyl)amino)methyl)-1-methyl-1H-1,2,3-triazol-4-yl)-2-(methoxy-methyl)pyridin-3-yl)oxy)cyclohexane-1-carboxylic acid], for which the IC50 came to 30 nM.

`CCc1nc(-c2nnn(C)c2CNC(=O)N(C)CC2CCC2)ccc1O[C@H]1CCC[C@H](C(=O)O)C1` [Example 148, (1S,3S)-3-((6-(5-((3-(cyclobutyl-methyl)-3-methylureido)methyl)-1-methyl-1H-1,2,3-triazol-4-yl)-2-ethylpyridin-3-yl)oxy)cyclohexane-1-carboxylic acid]: the IC50 came to 62 nM.

As to `Cc1nc(-c2nnn(C)c2NC(=O)OCC2CCCCC2)ccc1O[C@H]1CCC[C@H](C(=O)O)C1` [Example 76, (1S,3S)-3-((6-(5-(((cyclohexyl-methoxy)carbonyl)amino)-1-methyl-1H-1,2,3-triazol-4-yl)-2-methyl-pyridin-3-yl)oxy)cyclohexane-1-carboxylic acid], the IC50 came out at 19 nM.

With `CCCOC(=O)Nc1c(-c2ccc(O[C@H]3CCC[C@H](C(=O)O)C3)c(C)n2)nnn1C` [Example 68, (1S,3S)-3-((2-methyl-6-(1-methyl-5-((propoxycarbonyl)amino)-1H-1,2,3-triazol-4-yl)pyridin-3-yl)oxy)cyclohexane-1-carboxylic acid], the half-inhibitory concentration (IC50) worked out at 89 nM.

Consider `Cn1nnc(-c2ccc(O[C@H]3CCC[C@H](C(=O)O)C3)cn2)c1NC(=O)OCC1CCC1` [Example 81], for which the IC50 was determined as 56 nM.

With `Cc1nc(-c2nnn(C)c2CNC(=O)OCC2CCC2)ccc1O[C@H]1CCC[C@H](C(=O)O)C1` [Example 33, (1S,3S)-3-((6-(5-((((cyclobutylmethoxy)carbonyl)amino)methyl)-1-methyl-1H-1,2,3-triazol-4-yl)-2-methylpyridin-3-yl)oxy)cyclohexane-1-carboxylic acid], the IC50 was determined as 11 nM.

Take `Cn1nnc(-c2ccc(O[C@@H]3CCC[C@@H](C(=O)O)C3)cc2)c1CNC(=O)OCCC1CC1` (racemic) [Example 39, (±)-trans-3-(4-(5-((((2-cyclopropylethoxy)carbonyl)amino)methyl)-1-methyl-1H-1,2,3-triazol-4-yl)phenoxy)cyclohexane-1-carboxylic acid]: the half-inhibitory concentration (IC50) turned out to be 457 nM.

In the case of `Cc1nc(-c2nnn(C)c2CNC(=O)OCC(C)C)ccc1O[C@H]1CCC[C@H](C(=O)O)C1` [Example 25, (1S,3S)-3-((6-(5-(((isobutoxycarbonyl)amino)methyl)-1-methyl-1H-1,2,3-triazol-4-yl)-2-methyl-pyridin-3-yl)oxy)cyclohexane-1-carboxylic acid], the IC50 was determined as 51 nM.

For `Cc1nc(-c2nnn(C)c2CN(C)C(=O)NCc2ccccc2)ccc1O[C@H]1CCC[C@H](C(=O)O)C1` [Example 113, (1S,3S)-3-((6-(5-((3-benzyl-1-methylureido)methyl)-1-methyl-1H-1,2,3-triazol-4-yl)-2-methyl-pyridin-3-yl)oxy)cyclohexane-1-carboxylic acid], the IC50 was 218 nM.

Take `CCCCCCOC(=O)NCc1c(-c2ccc(O[C@H]3CCC[C@H](C(=O)O)C3)c(C)n2)nnn1C` [Example 20, (1S,3S)-3-((6-(5-((((hexyloxy)carbonyl)amino)methyl)-1-methyl-1H-1,2,3-triazol-4-yl)-2-methyl-pyridin-3-yl)oxy)cyclohexane-1-carboxylic acid]: the 50% inhibitory concentration (IC50) was found to be 3 nM.

Regarding `CCC1(COC(=O)NCc2c(-c3ccc(O[C@H]4CCC[C@H](C(=O)O)C4)cn3)nnn2C)CC1` [Example 51, (1S,3S)-3-((6-(5-(((((1-ethylcyclopropyl)methoxy)carbonyl)amino)methyl)-1-methyl-1H-1,2,3-triazol-4-yl)pyridin-3-yl)oxy)cyclohexane-1-carboxylic acid], the IC50 turned out to be 62 nM.

On to `Cc1nc(-c2nnn(C)c2NC(=O)OCC2CCC2)ccc1O[C@H]1CCC[C@H](C(=O)O)C1` [Example 75], for which the half-maximal inhibitory concentration (IC50) came to 22 nM.

For the compound `Cc1nc(-c2nnn(C)c2CCNC(=O)OC2CCCC2)ccc1O[C@H]1CCC[C@H](C(=O)O)C1` [Example 105, (1S,3S)-3-((6-(5-(2-(((cyclopentyl-oxy)carbonyl)amino)ethyl)-1-methyl-1H-1,2,3-triazol-4-yl)-2-methyl-pyridin-3-yl)oxy)cyclohexane-1-carboxylic acid], the concentration for half-maximal inhibition (IC50) worked out at 1830 nM.

For `Cc1nc(-c2nnn(C)c2NC(=O)N[C@H](C)c2ccccc2)ccc1O[C@H]1CCC[C@H](C(=O)O)C1` [Example 136, (1S,3S)-3-((2-methyl-6-(1-methyl-5-(3-((R)-1-phenylethyl)ureido)-1H-1,2,3-triazol-4-yl)pyridin-3-yl)oxy) cyclohexane-1-carboxylic acid], the 50% inhibitory concentration (IC50) came out at 103 nM.

Regarding `Cc1nc(-c2nnn(C)c2NC(=O)OCC2CC2C)ccc1O[C@H]1CCC[C@H](C(=O)O)C1` (mixture of isomers) [Example 223, (1S,3S)-3((2-methyl-6-(1-methyl-5-((((2-methylcyclopropyl)methoxy)carbonyl)amino)-1H-1,2,3-triazol-4-yl)pyridin-3-yl)oxy)cyclohexane-1-carboxylic acid (mixture of cyclopropyl diastereomers)], the IC50 turned out to be 52 nM.

For `Cn1nnc(-c2ccc(O[C@H]3CCC[C@H](C(=O)O)C3)cn2)c1CNC(=O)OCc1cccc(F)c1` [Example 12, (1S,3S)-3-((6-(5-(((((3-fluorobenzyl)oxy)carbonyl)amino)methyl)-1-methyl-1H-1,2,3-triazol-4-yl)pyridin-3-yl)oxy)cyclohexane-1-carboxylic acid], the 50% inhibitory concentration (IC50) stood at 23 nM.

The experiment is the same for the next values; noted with them: human LPA1 functional antagonist assay; read-out: hLPA1 IC50.
For the compound `CC[C@H](C)OC(=O)NCc1c(-c2ccc(O[C@H]3CCC[C@H](C(=O)O)C3)c(C)n2)nnn1C` [Example 175, (1S,3S)-3-((6-(5-((((S)-sec-butoxy-carbonyl)amino)methyl)-1-methyl-1H-1,2,3-triazol-4-yl)-2-methyl-pyridin-3-yl)oxy)cyclohexane-1-carboxylic acid], the IC50 came to 95 nM.

With `Cc1nc(-c2nnn(C)c2CNC(=O)OC2CC(F)(F)C2)ccc1O[C@H]1CCC[C@H](C(=O)O)C1` [Example 178, (1S,3S)-3-((6-(5-((((3,3-difluoro-cyclobutoxy)carbonyl)amino)methyl)-1-methyl-1H-1,2,3-triazol-4-yl)-2-methylpyridin-3-yl)oxy)cyclo-hexane-1-carboxylic acid], the IC50 was 102 nM.

Regarding `Cc1nc(-c2nnn(C)c2CNC(=O)OCCC2CC2)cnc1O[C@H]1CCC[C@H](C(=O)O)C1` [Example 160, (1S,3S)-3-((5-(5-((((2-cyclopropylethoxy)carbonyl)amino)methyl)-1-methyl-1H-1,2,3-triazol-4-yl)-3-methylpyrazin-2-yl)oxy)cyclo-hexane-1-carboxylic acid], the IC50 turned out to be 66 nM.

For `Cc1nc(-c2nnn(C)c2CNC(=O)OCC2CC2(F)F)ccc1O[C@H]1CCC[C@H](C(=O)O)C1` (mixture of isomers) [Example 180, (1S,3S)-3-((6-(5-(((((2,2-difluoro-cyclopropyl)methoxy)carbonyl)amino)methyl)-1-methyl-1H-1,2,3-triazol-4-yl)-2-methylpyridin-3-yl)oxy)cyclohexane-1-carboxylic acid (diastereomers at cyclopropyl carbon)], the IC50 is 53 nM.

Consider `Cc1nc(-c2nnn(C)c2CNC(=O)OCCCCC(F)(F)F)ccc1O[C@H]1CCC[C@H](C(=O)O)C1` [Example 166, (1S,3S)-3-((2-methyl-6-(1-methyl-5-(((((5,5,5-trifluoropentyl)oxy)carbonyl)amino)methyl)-1H-1,2,3-triazol-4-yl)pyridin-3-yl)oxy)cyclohexane-1-carboxylic acid], for which the IC50 came to 121 nM.
